Measurements reported in PMC8804135 (Neurotherapeutics, 2021).

Key:
[1] = In vitro stability in rat serum; format: in vitro ADME; settings: 5% rat serum, 20 mM phosphate pH 7.4, 37 °C, 10 µM, HPLC A280, n = 2–3
Procedure: At various time points (0, 30, 90, 270, and 1410 min), 180 µl of samples were quenched with 10 µl 10% TFA and 20 µl 100% ACN. Samples were centrifuged and kept on ice. The amount of full-length peptides in the serum was analyzed using a C12 column (C12 RP 250 × 4.60 mm column, Phenomenex) on a JASCO HPLC system and applying a gradient of 10–90% ACN in 0.1% TFA for 45 min. Peptides were detected at 280 nm. A280 areas in chromatograms of the corresponding GAL-(1–15) and M89b full-length peptide peaks were used to determine the amount of peptide left after incubation with 5% rat serum at the different time points. Peptide peaks were determined using JASCO-Borwin Chromatography software (v1.50).

[2] = In vitro stability in cerebrospinal fluid; format: in vitro ADME; settings: cerebrospinal or other body fluid; pooled male Wistar Hannover rat cerebrospinal fluid, 37 °C; 4 µl 0.50 mM peptide + 10 µl CSF; after 4 h; HPLC A280; n = 2–3; read-out: Peptide retrieved in CSF
Procedure: Pooled male Wistar Hannover rat cerebrospinal fluid was purchased from BioIVT (West Sussex, UK). Stability of peptides was analyzed by incubation of 4 µl 0.50 mM GAL-(1–15) with 10 µl cerebrospinal fluid or 6 µl 0.33 mM M89b with 10 µl cerebrospinal fluid at 37 °C [43]. At various time points (0, 30, 60, 240, and 480 min), the reactions were quenched with 2 µl 50% TFA and 20 µl 100% ACN. Water was added to reach a final volume of 220 µl. Samples were centrifuged and kept on ice. Full-length peptides were quantified by using a C12 column (C12 RP 250 × 4.60 mm column, Phenomenex) on a JASCO HPLC system and applying a gradient of 20–90% ACN in 0.1% TFA for 30 min. Peptides were detected at 280 nm. A280 areas in chromatograms of the corresponding GAL-(1–15) and M89b full-length peptide peaks were used to determine the amount of peptide left after incubation with cerebrospinal fluid at the different time points. Peptide peaks were determined using JASCO-Borwin Chromatography software (v1.50).

[3] = In vitro stability in brain plasma; format: in vitro ADME, rat; settings: 1% Sprague dawley rat brain plasma, 200 mM phosphate pH 7.4, 37 °C, 10 µM; after 1 h; HPLC A280; n=3
Procedure: The method to study the stability of peptides in brain plasma is described in the Supplementary material. […]
receptor-2-selective agonist reduces acute food intake
Anneke Kuipers1, Márta Balasko2, Erika Pétervári2, Andreas Koller3,4, Susanne M.
Brunner3,4, Gert N. Moll1,5, Barbara Kofler 3*
In vitro stability in brain plasma
Sprague dawley rat brain lyophilized powder was purchased from MyBioSource (San Diego, USA). One gram brain powder was reconstituted in 10 ml PBS, 0.5 ml 2 M Tris (pH=8), 100 µl Triton X -100 and 10 mg SDS. The solution was centrifuged and the supernatant was collected, aliquoted and stored at -20 °C until usage. To assess the stability, 10 µM GAL-(1-15) and 10 µM M89b were incubated in 1% brain plasma buffered with 200 mM phosphate buffer (pH 7.4) at 37°C for up to 6 hours. At various time points […]
20 µl 100% ACN. Samples were centrifuged and kept on ice. Full-length peptides were quantified by using a C12 column (C12 RP 250 x 4.60 mm column, Phenomenex) on a JASCO HPLC system and applying a gradient of 20 -90% ACN in 0.1% TFA for 30 minutes.
Peptides were detected at 280 nm. A280 areas in chromatograms of the corresponding GAL-(1-15) and M89b full-length peptide peaks were used to determine the amount of peptide left after incubation with cerebrospinal fluid at the different time points. Peptide peaks were determined using JASCO-Borwin Chromatography software (v1.50).

[4] = cited from earlier work
From the text: The use of natural galanin in clinical applications faces two serious limitations: lack of receptor specificity and in vivo susceptibility to rapid peptidase-mediated breakdown. […] Recently, a selective GAL2R agonist based on the sequence of spexin, a newly discovered natural peptide with affinity for GAL2R and ...

[5] = target: T1, GAL2R (Homo sapiens, UniProt O43603); set-up: expressed in transfected cells; host or cells: HEK293 Gqi cells, transient; plasmids from Young Seong (Korea University); settings: cited from earlier work
T1 sequence (O43603 1-387): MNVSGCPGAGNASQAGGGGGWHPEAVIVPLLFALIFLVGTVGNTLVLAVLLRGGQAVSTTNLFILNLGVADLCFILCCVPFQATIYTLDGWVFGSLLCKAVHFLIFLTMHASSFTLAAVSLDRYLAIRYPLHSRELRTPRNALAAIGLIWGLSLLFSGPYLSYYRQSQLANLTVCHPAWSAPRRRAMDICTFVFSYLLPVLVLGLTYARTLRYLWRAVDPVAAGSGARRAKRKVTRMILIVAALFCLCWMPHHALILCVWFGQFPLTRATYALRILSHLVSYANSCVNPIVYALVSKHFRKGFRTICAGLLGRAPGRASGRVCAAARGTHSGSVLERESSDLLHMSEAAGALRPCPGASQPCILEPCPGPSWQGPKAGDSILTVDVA
From the text: Since the discovery of the three GALRs, major effort has been directed at developing receptor-selective agonists and antagonists. These were based on substitution of certain amino acids in the galanin peptide sequence. While receptor selectivity was achieved to some degree, GAL(2–11) turned out to be a very selective non-GAL1R agonist.

[6] = system: non-fasted male Wistar rats; test: Food intake and body weight after intranasal application of peptides; format: in vivo, rat
Procedure: For intranasal delivery, 1 mg of M89b was first dissolved in 566 µl 2,2,2-trifluorethanol, 566 µl 10% (2-hydroxypropyl)-ß-cyclodextrin (HBC), and 1 µl acetic acid and incubated at 60 °C for 20 min. Another 566 µl of 10% HBC were added. The peptide was then dried in a speed-vac, and the dried pellet was dissolved in 1132 µl water by vortexing and incubation at 60 °C. M871 and GALP were purchased from GL Biochem. M871 was dissolved in saline containing 10% HBC. GALP was dissolved in saline containing 5% α-cyclodextrin.
In vivo experiments involving intranasal treatment of rats and measurement of feeding behavior were performed at the Institute for Translational Medicine, University of Pécs, Pécs, Hungary. Experiments were approved by the National Ethical Council for Animal Research (permit number, BA 02/2000–11/2018). They were also in accord with the directives of the European Communities Council on the protection of animals used for scientific purposes (86/609/EEC, Directive 2010/63/EU of the European Parliament and of the Council).
Spontaneous food intake was measured in non-fasted male Wistar rats (3 months old) for 24 h following intranasal application of peptide solutions by an automated FeedScale System (Columbus, OH). Each group of animals (6–9 rats/group) was habituated to the individual chambers of the FeedScale System until daily food intake and changes in the body weight of the animals had normalized. This habituation, which lasted for a minimum of 2 weeks, allowed adaptation to the environment, to the powdered chow and to the feeder. This powdered form of chow prevented food hoarding. A special digital scale under the cages provided precise automated measurement and continuous recording of the amount of consumed food. During the measurement of the cumulative 24 h food intake, data were collected every 30 min.
Intranasal applications were performed at 06:00 PM at the onset of the active nighttime period of rats. First, the body weight of animals was recorded, and then they were intraperitoneally anesthetized with ketamine (52 mg/kg) and xylazine (9 mg/kg). For the intranasal application of peptides, rats were placed on their backs, and 25–30 µl of peptide solution was injected gently per nostril (total volume of 50–60 μl per rat depending on the administered peptides) using a 10-μl pipette. The following solutions were applied: M89b (25 nmol in 60 µl saline containing 10% HBC); GALP (17.5 nmol in 50 µl saline containing 5% α-cyclodextrin); M871 (219 nmol in 60 µl 10% HBC); and M89b + M871 (25 nmol M89b + 219 nmol M871 in 60 µl 10% HBC). […] At 24 h post-treatment, the body weight of the animals was measured.
Statistical analysis was performed with SPSS 11.0. […] Body weight data were analyzed by applying a one-way ANOVA with Tukey’s post hoc test. […]

[7] = intranasal administration with α-cyclodextrins; cited from earlier work
From the text: For delivery of therapeutic peptides and proteins to the brain, the blood–brain barrier (BBB) is a major impediment. Intranasal delivery might provide a non-invasive means to bypass the BBB. Advantages of applying peptides via the nasal route, provided they do indeed reach the brain, include minimizing exposure to peripheral organs and tissues, thus reducing systemic side effects. […] Intranasal delivery of peptides may provide the ability to target specific re ...

With `CC(C)C[C@H](NC(=O)[C@H](CC(C)C)NC(=O)[C@H](Cc1ccc(O)cc1)NC(=O)CNC(=O)[C@H](C)NC(=O)[C@H](CO)NC(=O)[C@H](CC(N)=O)NC(=O)[C@H](CC(C)C)NC(=O)[C@@H](NC(=O)[C@H](Cc1c[nH]c2ccccc12)NC(=O)CN)[C@@H](C)O)C(=O)NCC(=O)N1CCC[C@H]1C(=O)N[C@@H](Cc1c[nH]cn1)C(=O)N[C@@H](C)C(N)=O` [GAL-(1–15), reference compound] the metabolised at 0.5 h, 10 µM ([1]; after 30 min, read-out: Peptide degraded in rat serum) was 80%, the remaining at 1.5 h, 10 µM ([1]; after 90 min, read-out: Peptide detectable in rat serum) was < 2% and the remaining at 4 h, 143 µM [2] was < 4%. The “Degradation in brain plasma” value [3] was “the whole amount of GAL-(1–15) was degraded”.
For `CC(C)C[C@H](NC(=O)CNC(=O)[C@H](CC(N)=O)NC(=O)[C@H](CCCCN)NC(=O)[C@H](CC(=O)O)NC(=O)[C@H](CO)NC(=O)[C@H](Cc1ccccc1)NC(=O)[C@H](CO)NC(=O)[C@H](CCCNC(=N)N)NC(=O)[C@H](Cc1cnc[nH]1)NC(=O)[C@H](CC(N)=O)NC(=O)CNC(=O)[C@@H](NC(=O)[C@H](C)NC(=O)[C@H](Cc1cnc[nH]1)NC(=O)[C@@H]1CCCN1C(=O)CNC(=O)[C@H](CC(C)C)NC(=O)[C@H](CC(C)C)NC(=O)[C@H](Cc1ccc(O)cc1)NC(=O)CNC(=O)[C@H](C)NC(=O)[C@H](CO)NC(=O)[C@H](CC(N)=O)NC(=O)[C@H](CC(C)C)NC(=O)[C@@H](NC(=O)[C@H](Cc1c[nH]c2ccccc12)NC(=O)CN)[C@@H](C)O)C(C)C)C(=O)N[C@H](C(=O)N[C@@H](CO)C(=O)O)[C@@H](C)O` [galanin], the “In vivo half-life in plasma” value [4] is listed as “around 4 min”.
In the case of Ala5-galanin(2–11), the “Preference for GAL2R compared to both GAL1R and GAL3R” value [5] is given as “more than 375 fold”.
For “galanin-like peptide (APAHRGRGGWTLNSAGYLLGPVLHLPQMGDQDGKRETALEILDLWKAIDGLPYSHPPQPS; Galanin-like peptide; UniProt Q9UBC7 25-84, looked up) [GALP, reference compound]”, the “Reduction of 24-h food intake” value ([6]; intranasal 17.5 nmol in 50 µl saline with 5% α-cyclodextrin, vs vehicle, p = 0.038) is given as 19%, the “24-h body weight change” value ([6]; intranasal 17.5 nmol in saline with 5% α-cyclodextrin, p = 0.0247 as printed) is given as “trend of reduction, but this change did not reach statistical significance” and the “Increase of uptake in all brain regions compared to GALP alone” value [7] is given as “two- to threefold”.
